The source of these data is ChEMBL document CHEMBL4041536, “Design, synthesis and biological activity of novel molecules designed to target PARP and DNA” (Bioorg Med Chem Lett, 2017).

pIC50: −log10 of the molar value. Active and inactive are the calls of the source. The calls are words filed in the database; no cut-off is given here.

Test system in one data set: not listed separately
Nature of the data set: Inhibition of PARP in Wistar rat pancreatic islet nuclear fraction using histone H1 as substrate in presence of [14C]NAD after 10 mins by scintillation counting method.
Broadly, the pIC50 is −log10 of the IC50, conventionally taken in molar units. For the molecule `NC(=O)c1cccc(N)c1` [3-AMINOBENZAMIDE], the negative logarithm of the IC50 (pIC50) was 3.92 to 5.30.

Test system in the next data set: not listed separately
The experiment in a line: Drug uptake in nucleus of chinese hamster VC8 cells harboring wild type BRCA2 at 25 uM by DAPI staining based fluorescence microscopic method. In kind it is ADME, Cricetulus griseus.
As for `O=C1NC(=O)c2ccc([N+]3=NN(CCCl)CC3)c3cccc1c23.[Cl-]`, the Drug uptake entry was “Not Active”.

Test system in a further data set: not listed separately
The experiment in a line: Drug uptake in nucleus of chinese hamster VC8 cells harboring BRCA2 mutant at 25 uM by DAPI staining based fluorescence microscopic method. It counts as ADME, Cricetulus griseus.
Take `O=C1NC(=O)c2ccc([N+]3=NN(CCCl)CC3)c3cccc1c23.[Cl-]`: the Drug uptake result is “Not Active”.

Test system in another data set: not listed separately
The experiment in a line: Inhibition of PARP (unknown origin). On the set-up: species or system Homo sapiens.
Take `Cc1nc2ccccc2c(=O)[nH]1`: the pIC50 was 3.92 to 5.30.

The species named for another data set is Cricetulus griseus. Nature of the data set: (§1) Inhibition of PARP in chinese hamster VC8 cells harboring BRCA2 mutant. In kind it is cell-based.
Take `O=C1NC(=O)c2ccc([N+]3=NN(CCCl)CC3)c3cccc1c23.[Cl-]`: the inhibition entry was “Dose-dependent effect”.

Test system in a further data set: not listed separately
The description is as §1. In kind it is cell-based, Cricetulus griseus.
For the molecule `O=C1NC(=O)c2ccc([N+]3=NN(CCCl)CC3)c3cccc1c23.[Cl-]`, the pIC50 is 5.77 to 6.00.

For `Nc1ccc2c3c(cccc13)C(=O)NC2=O`, the pIC50 is 5.59.

For `O=c1[nH]ccc2c([N+]3=NN(CCCl)CC3)cccc12`, the pIC50 is 4.62.

The molecule `ClCCN1CC[N+](c2ccc3ncnc(Nc4cccc(Cl)c4)c3c2)=N1` gave a pIC50 of 4.82.

The species entered for another data set is Cricetulus griseus. The experiment in a line: Induction of DNA damage in chinese hamster VC8 cells harboring BRCA2 mutant by comet assay. In kind it is cell-based.
As to `O=C1NC(=O)c2ccc([N+]3=NN(CCCl)CC3)c3cccc1c23.[Cl-]`, the result was Active. Regarding `ClCCN1CC[N+](c2ccc3ncnc(Nc4cccc(Cl)c4)c3c2)=N1`, the outcome was Active.

The species named for the next data set is Cricetulus griseus. The experiment in a line: Inhibition of PARP in chinese hamster VC8 cells harboring BRCA2 mutant assessed as growth inhibition. It counts as cell-based.
Turning to `O=C1NC(=O)c2ccc(/N=N/N(CCCl)CCCl)c3cccc1c23`, the inhibition result is “inactive”.

Consider `Nc1cccc2c(=O)[nH]ccc12`, for which the inhibition result was “inactive”. In the case of `CN/N=N/c1cccc2c(=O)[nH]ccc12`, the inhibition entry was “inactive”. Same read-out and setting: then `CN(C)/N=N/c1cccc2c(=O)[nH]ccc12`, with “inactive”. `CN(C)/N=N/c1ccc2c3c(cccc13)C(=O)NC2=O`: the inhibition entry was “inactive”. In the case of `CN(CO)/N=N/c1cccc2c(=O)[nH]ccc12`, the inhibition entry was “inactive”. On the same count and under the same terms, the entry for `CN(CO)/N=N/c1ccc2c3c(cccc13)C(=O)NC2=O` is “inactive”; for `CN/N=N/c1ccc2c3c(cccc13)C(=O)NC2=O` it is “inactive”.

For a further data set, the species on record is Cricetulus griseus. Nature of the data set: Selectivity ratio of PARP inhibition in chinese hamster VC8 cells harboring wild type BRCA2 to PARP inhibition in chinese hamster VC8 cells harboring BRCA2 mutant. It counts as cell-based.
As for `O=C1NC(=O)c2ccc([N+]3=NN(CCCl)CC3)c3cccc1c23.[Cl-]`, the Selectivity ratio came to 25.

In the case of `CN/N=N/c1cccc2c(=O)[nH]ccc12`, the Selectivity ratio fell in the range of 2 to 7.

For `CN(C)/N=N/c1cccc2c(=O)[nH]ccc12`, the Selectivity ratio lay in the range of 2 to 7. On the same count and under the same terms, the figure for `CN(C)/N=N/c1ccc2c3c(cccc13)C(=O)NC2=O` is 2 to 7; for `CN(CO)/N=N/c1cccc2c(=O)[nH]ccc12` it is 2 to 7. For `CN(CO)/N=N/c1ccc2c3c(cccc13)C(=O)NC2=O`, the Selectivity ratio was 2 to 7. For `Nc1ccc2c3c(cccc13)C(=O)NC2=O`, the Selectivity ratio was 77. Turning to `CN/N=N/c1ccc2c3c(cccc13)C(=O)NC2=O`, the Selectivity ratio lay in the range of 2 to 7.
